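1) Cells in 96-well plates. 2) Compound, 48 h, 5 concentrations. 3) Linear interpolation between surrounding doses. 4) Unreached endpoint = highest concentration. Abbreviation: GI50, concentration required for 50% inhibition of growth.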 Active and inactive are the calls of the source. No stated cut-off is given here; in the data, active = GI50 up to about 1.1 µM and inactive = higher.
Columns and labels:
Experiment in all cases: inhibition of tumour cell growth, NCI panel, 48 h
KM-20L2 = tested on: KM-20L2
IGROV-1 = tested on: IGROV-1
ACHN = tested on: ACHN
OVCAR-4 = tested on: OVCAR-4
UACC-257 = tested on: UACC-257
DMS-273 = tested on: DMS-273
NCI-H460 = tested on: NCI-H460
CAKI-1 = tested on: CAKI-1
COLO 205 = tested on: COLO 205
TK-10 = tested on: TK-10
XF498 = tested on: XF498
SK-MEL-28 = tested on: SK-MEL-28
SF-295 = tested on: SF-295
RPMI-8226 = tested on: RPMI-8226
HOP-92 = tested on: HOP-92
SNB-75 = tested on: SNB-75
SK-MEL-5 = tested on: SK-MEL-5
786-0 = tested on: 786-0
M14 = tested on: M14
HOP-18 = tested on: HOP-18
OVCAR-8 = tested on: OVCAR-8
LXFL 529 = tested on: LXFL 529
SNB-78 = tested on: SNB-78
Malme-3M = tested on: Malme-3M
HT-29 = tested on: HT-29
SK-OV-3 = tested on: SK-OV-3
LOX IMVI = tested on: LOX IMVI
CCRF-CEM = tested on: CCRF-CEM
NCI-H226 = tested on: NCI-H226
OVCAR-5 = tested on: OVCAR-5
HCT-116 = tested on: HCT-116
KM12 = tested on: KM12
HOP-62 = tested on: HOP-62
A549 = tested on: A549
SN12C = tested on: SN12C
SNB-19 = tested on: SNB-19
RXF 393 = tested on: RXF 393
EKVX = tested on: EKVX
OVCAR-3 = tested on: OVCAR-3
SK-MEL-2 = tested on: SK-MEL-2
HCC 2998 = tested on: HCC 2998
MOLT-4 = tested on: MOLT-4
UACC-62 = tested on: UACC-62
DLD-1 = tested on: DLD-1
HCT-15 = tested on: HCT-15
UO-31 = tested on: UO-31
K562 = tested on: K562
U-251 = tested on: U-251
SW-620 = tested on: SW-620
M19-MEL = tested on: M19-MEL
HL-60 = tested on: HL-60
NCI/ADR-RES = tested on: NCI/ADR-RES
DMS-114 = tested on: DMS-114
A498 = tested on: A498
NCI-H23 = tested on: NCI-H23
NCI-H522 = tested on: NCI-H522
SF-268 = tested on: SF-268
SF-539 = tested on: SF-539
MCF7 = tested on: MCF7

In the case of `C[C@@H](NC1CCCC[C@@H]1O)c1ccccc1` (stereo not given in full), the GI50 (KM-20L2) is reported as > 100 µM (inactive), the GI50 (IGROV-1) is reported as > 100 µM (inactive) and the GI50 (ACHN) is reported as > 100 µM (inactive). For the same compound, the GI50 (OVCAR-4) was > 100 µM (inactive), the GI50 (UACC-257) was > 100 µM (inactive) and the GI50 (DMS-273) was > 100 µM (inactive). For the same compound, the GI50 (NCI-H460) was > 100 µM (inactive), the GI50 (CAKI-1) was > 100 µM (inactive) and the GI50 (COLO 205) was > 100 µM (inactive). For the same compound, the GI50 (TK-10) was > 100 µM (inactive), the GI50 (XF498) was > 100 µM (inactive) and the GI50 (SK-MEL-28) was > 100 µM (inactive). For the same compound, the GI50 (SF-295) was > 100 µM (inactive), the GI50 (RPMI-8226) was > 100 µM (inactive) and the GI50 (HOP-92) was > 100 µM (inactive). The GI50 (SNB-75) was 98.4 µM (inactive), the GI50 (SK-MEL-5) was > 100 µM (inactive) and the GI50 (786-0) was > 100 µM (inactive). The GI50 (M14) was > 100 µM (inactive), the GI50 (HOP-18) was > 100 µM (inactive) and the GI50 (OVCAR-8) was > 100 µM (inactive). For the same compound, the GI50 (LXFL 529) was > 100 µM (inactive), the GI50 (SNB-78) was > 100 µM (inactive) and the GI50 (Malme-3M) was > 100 µM (inactive). The GI50 (HT-29) was > 100 µM (inactive), the GI50 (SK-OV-3) was > 100 µM (inactive) and the GI50 (LOX IMVI) was > 100 µM (inactive). The GI50 (CCRF-CEM) was > 100 µM (inactive), the GI50 (NCI-H226) was > 100 µM (inactive) and the GI50 (OVCAR-5) was > 100 µM (inactive). For the same compound, the GI50 (HCT-116) was > 100 µM (inactive), the GI50 (KM12) was > 100 µM (inactive) and the GI50 (HOP-62) was > 100 µM (inactive). The GI50 (A549) was > 100 µM (inactive), the GI50 (SN12C) was > 100 µM (inactive) and the GI50 (SNB-19) was > 100 µM (inactive). The GI50 (RXF 393) was > 100 µM (inactive), the GI50 (EKVX) was > 100 µM (inactive) and the GI50 (OVCAR-3) was > 100 µM (inactive). The GI50 (SK-MEL-2) was > 100 µM (inactive), the GI50 (HCC 2998) was > 100 µM (inactive) and the GI50 (MOLT-4) was > 100 µM (inactive). For the same compound, the GI50 (UACC-62) was > 100 µM (inactive), the GI50 (DLD-1) was > 100 µM (inactive) and the GI50 (HCT-15) was greater than 100 µM. For the same compound, the GI50 (UO-31) was > 100 µM (inactive), the GI50 (K562) was > 100 µM (inactive) and the GI50 (U-251) was > 100 µM (inactive). The GI50 (SW-620) was > 100 µM (inactive), the GI50 (M19-MEL) was > 100 µM (inactive) and the GI50 (HL-60) was > 100 µM (inactive).

For `CCN1CCCC(NCc2c3ccccc3c(CNC3CCCN(CC)C3)c3ccccc23)C1` (stereo not given), the GI50 (KM-20L2) was 3.76 µM (inactive), the GI50 (IGROV-1) was 16.2 µM (inactive) and the GI50 (OVCAR-4) was 5.2 µM (inactive). The GI50 (NCI/ADR-RES) was 25 µM (inactive), the GI50 (UACC-257) was 10.9 µM (inactive) and the GI50 (DMS-273) was 5.56 µM (inactive). For the same compound, the GI50 (NCI-H460) was 3.65 µM (inactive), the GI50 (CAKI-1) was 16.1 µM (inactive) and the GI50 (COLO 205) was 1.99 µM (inactive). For the same compound, the GI50 (XF498) was 20.5 µM (inactive), the GI50 (SK-MEL-28) was 11.8 µM (inactive) and the GI50 (SF-295) was 4.67 µM (inactive). The GI50 (RPMI-8226) was 10.2 µM (inactive), the GI50 (HOP-92) was 11.1 µM (inactive) and the GI50 (SNB-75) was 7.98 µM (inactive). The GI50 (SK-MEL-5) was 14.1 µM (inactive), the GI50 (DMS-114) was 4.99 µM (inactive) and the GI50 (HOP-18) was 5.92 µM (inactive). For the same compound, the GI50 (OVCAR-8) was > 33.7 µM (inactive), the GI50 (SNB-78) was 22.3 µM (inactive) and the GI50 (Malme-3M) was 21.6 µM (inactive). The GI50 (HT-29) was 2.6 µM (inactive), the GI50 (SK-OV-3) was 10.1 µM (inactive) and the GI50 (LOX IMVI) was 6.37 µM (inactive). The GI50 (CCRF-CEM) was 3.34 µM (inactive), the GI50 (NCI-H226) was 13.4 µM (inactive) and the GI50 (OVCAR-5) was 5.96 µM (inactive). For the same compound, the GI50 (HCT-116) was 4.5 µM (inactive), the GI50 (A498) was 12.6 µM (inactive) and the GI50 (KM12) was 5.45 µM (inactive). The GI50 (NCI-H23) was 15.6 µM (inactive), the GI50 (HOP-62) was 19.6 µM (inactive) and the GI50 (A549) was > 48 µM (inactive). The GI50 (SN12C) was 8.91 µM (inactive), the GI50 (NCI-H522) was 2.49 µM (inactive) and the GI50 (SNB-19) was 11.1 µM (inactive). The GI50 (RXF 393) was 3.48 µM (inactive), the GI50 (EKVX) was 17.3 µM (inactive) and the GI50 (OVCAR-3) was 3.8 µM (inactive). The GI50 (SK-MEL-2) was 5.16 µM (inactive), the GI50 (HCC 2998) was 13.1 µM (inactive) and the GI50 (SF-268) was 7.8 µM (inactive). The GI50 (MOLT-4) was 3.18 µM (inactive), the GI50 (UACC-62) was 12.9 µM (inactive) and the GI50 (DLD-1) was 12.8 µM (inactive). The GI50 (HCT-15) was 12.5 µM, the GI50 (UO-31) was 24.8 µM (inactive) and the GI50 (SF-539) was 14.9 µM (inactive). For the same compound, the GI50 (K562) was 7.85 µM (inactive), the GI50 (U-251) was 11.8 µM (inactive) and the GI50 (SW-620) was 4.04 µM (inactive). For the same compound, the GI50 (M19-MEL) was 7.45 µM (inactive), the GI50 (MCF7) was 2.86 µM (inactive) and the GI50 (HL-60) was 7.03 µM (inactive).

From ChEMBL document CHEMBL1201862, “PubChem BioAssay data set” (2004)
